What was measured:
herpes simplex = assay: remission of herpes lesions in patient (Example 3)
coliform = settings: in vitro, pure ozone; cited from earlier work
S. aureus = settings: in vitro, pure ozone; cited from earlier work
Aeromonas hydrophilia = settings: in vitro, pure ozone; cited from earlier work
enteroviruses = settings: in vitro, pure ozone; cited from earlier work
poliovirus 2 = settings: in vitro, pure ozone; cited from earlier work
coxsachie = settings: in vitro, pure ozone; cited from earlier work
mice = settings: 3 hours of inhalation; cited from earlier work
human subjects = settings: 0.24 ppm for two hours; cited from earlier work
mammals = settings: overdoses of pure O3; cited from earlier work

SMILES | herpes lesions during treatment with acyclovir (herpes simplex) | inactivation of coliform (coliform) | inactivation of S. aureus (S. aureus) | inactivation of Aeromonas hydrophilia (Aeromonas hydrophilia) | inactivation of enteroviruses (enteroviruses) | inactivation of poliovirus 2 (poliovirus 2) | inactivation of coxsachie (coxsachie) | LD50 (mice) | cell functions (human subjects) | enzyme activities (human subjects) | respiratory capacity (human subjects) | signs of overdose (mammals)
Nc1nc2c(ncn2COCCO)c(=O)[nH]1 [acyclovir] | had persisted |  |  |  |  |  |  |  |  |  |  | 
O=[O+][O-] [ozone] |  | inactivates | inactivates | inactivates | inactivates | inactivates | inactivates | 22 ppm | inhibition of certain cell functions | wide fluctuations in enzyme activities | drops in respiratory capacity | pulmonary edema and hemorrhaging

From US5133975A, “Method for in vivo inactivation of blood borne HIV virus using a mixture of ozone and oxygen” (RJH and Company, Inc., priority 1989, dated 1992)
